Read-outs that look alike come from different tables or passages of the source.
Key:
[1] = molecular target: T1, HCMV DNA polymerase (UL54) (Human cytomegalovirus, UniProt P08546); assay: HCMV DNA polymerase enzyme inhibition assay (ProFoldin, fluorescence); type: biochemical; conditions: 37° C., duplicate, max 40 μM
T1 construct: 6His (C); made in house; host or cells: Sf9 insect cells (baculovirus, pFastBac)
Method: The HCMV DNA polymerase assay was developed by ProFoldin. The assay detects the formation of DNA from the DNA polymerase reaction in the presence of a DNA template, dATP and dGTP. The formation of the DNA is detected by using a fluorescence method. The fluorescence intensity increases when DNA is generated by the enzyme reaction.
A time-course experiment was performed aside the enzyme inhibition assay to ensure the assay was sensitive to the enzyme inhibition. The wells for the time-course experiment contained 1 μL of DMSO and the same reaction mixture as that in the enzyme inhibition assay. The time-course data varied between plates. The reactions were stopped when the fluorescence reached a value of about 3700 for each plate.
Exemplary solid compounds (e.g., as described herein) were dissolved in DMSO to make […] stock solutions. PFA (phosphonoformic acid or phosphonomethanoic acid) was used as a positive control. The compound mother plates were prepared at 50× concentrated compound concentrations with a 2-fold serial dilution. All the exemplary compounds except PFA were diluted in DMSO. PFA was diluted in water. The maximum compound concentration was 2 mM that gave the final concentration of 40 μM in the assay. One microliter of the 50× stock solutions was transferred into the assay plates. Three copies of assay plates were prepared, two for HCMV DNA polymerase assay and one for compound background control.
The following is the protocol for enzyme inhibition performed at 37° C.:
1. Prepared a premix composed of 35347 μL of H2O, 5220 μL of 10× assay buffer and 149 μL of 350×HCMV DNA polymerase.
2. Added 39 μL of the premix into the wells with 1 μL of the compound. Incubated the mixture for at least 5 min.
3. Added 10 μL of 5×dNTP (0.1 mM), 5×DNA template solutions into each well and incubated the solution until the fluorescence value reached a value about 3700 for the DMSO-only control wells.
4. Added 50 μL of the 1× dye into the wells.
5. Read the fluorescence at emission wavelength of 535 nm and excitation wavelength of 485 nm.
For the compound background reading, added 99 μL of water in the wells with 1 μL of compounds and read the fluorescence. […] The 0% inhibition value F0 was from the wells with DMSO (no inhibitor).
The background values were subtracted from the fluorescence reading to get the net fluorescence values. The net fluorescence values were used for calculation of the percentage inhibition.
The assay was performed in duplicate for the test article at […], 1.25, 0.625, 0.313, 0.156 and 0.078 μM. The IC50 curves were obtained by fitting the percentage inhibition values with the compound concentrations using Prism GraphPad software.

[2] = tested on: HCMV US3-6-EGFP-HCMV-AD169 strain; assay: In vitro inhibitory (antiviral) activity against HCMV, GFP reporter in MRC5 cells; type: cell-based, Human cytomegalovirus (HCMV); conditions: Human betaherpesvirus 5, AD169, MRC5, 96 h, read-out: HCMV Antiviral EC50 range
Method: (§1) Exemplary compounds (e.g., as described herein) were prepared as 20 mM stock solutions with DMSO. Reference compound was ganciclovir (Sigma). Compounds were tested at 8 concentrations, 3-fold serial dilutions, in duplicate for EC50 and CC50 determinations. The highest testing concentrations of the exemplary compounds and reference compound were 40 μM and 100 μM, respectively. The final concentration of DMSO in the cell culture was 0.5%.
HCMV US3-6-EGFP-HCMV-AD169 strain was obtained from Institute Pasteur of Shanghai, CAS. The virus contains GFP as a reporter of the viral replication.
(§2) MRC5 cells (ATCC CCL-171) was obtained from the ATCC and maintained in the EMEM (Sigma) supplemented with 10% FBS (HyClone), 1% L-glutamine (Gibco), 1% NEAA (Gibco), and 1% PS (Hyclone). Reagent:
In 96-well plates, MRC5 cells were seeded at 20,000 cells per well and cultured at 37° C. and 5% C02 overnight. Next day, compounds (8 concentrations, 3-fold dilutions, in duplicate) and US3-6-EGFP-HCMV-AD169 (MOI=0.1) were added to the cells. The resulting cultures were incubated at 37° C. and 5% C02 for 4 days. Fluorescence intensity was determined by Acumen Cellista (TTP LabTech). The antiviral activity of each compound was calculated based on the inhibition of expression of GFP at each concentration normalized by the cell control (cells without virus infection or compound treatment).
(§3) Antiviral activity and cytotoxicity of the compounds were expressed as % Inhibition and % Viability, respectively, and calculated with the formulas below:
Inhibition (%)=100−(Raw dataCPD−AverageCC)/(AverageVC−AverageCC)*100
(§4) Raw dataCPD indicates the values of the compound-treated wells; AverageVC, AverageCC and AverageMC indicate the average values of the virus control (cells infected with virus, without compound treatment), cell control and medium control wells, respectively.
(§5) EC50 and CC50 values were calculated using the GraphPad Prism software.

[3] = Cytotoxicity in MRC5 cells without virus infection (CCK8); type: cell-based; conditions: human
Method: as §1, §2
Cytotoxicity of the compounds was assessed under the same conditions, but without virus infection, in parallel. Cell viability was measured with CCK8 following the manufacturer's manual. CC50 values were then calculated based on cytotoxicity at the test concentrations normalized by the medium control (medium only).
as §3
Viability (%)=(Raw dataCPD−AverageMC)/(AverageCC−AverageMC)*100
as §4, §5

hERG potassium channel = molecular target: T2, hERG potassium channel (Homo sapiens, UniProt Q12809); assay: Inhibition of hERG potassium channel, automated patch clamp (SyncroPatch 384PE) in CHO cells; type: cell-based
T2 construct: host or cells: CHO cells stably expressing hERG
Method: This automated patch clamp method (SyncroPatch 384PE) CHO cells stably expressing hERG potassium channels from Sophion Biosciences were used for this test.
The cells were cultured in a humidified and air-controlled (5% C02) incubator at 37° C.
The CHO cells which were at least two days after plating and more than 75% confluent would be used for experiments. Before testing, cells were harvested using TrypLE and resuspended in the physiological solution at the room temperature.
For the electrophysiological recordings the following solutions were used (Table 5). The physiological solution and external solution were prepared at least one month. The intracellular solution was prepared in batches aliquoted, and stored at 4° C. until used.
Exemplary compounds (e.g., as described herein) were dissolved in 100% DMSO to obtain stock solutions for different test concentrations. Then the stock solutions were further diluted into external solution to achieve final concentrations for testing. Visual check for precipitation was conducted before testing. Final DMSO concentration in external solution was not more than 0.30% for the compounds.
From this holding potential of −80 mV, the voltage was first stepped to −50 mV for 80 ms for leak subtraction, and then stepped to +20 mV for 4800 ms to open hERG channels. After that, the voltage was stepped back down to −50 mV for 5000 ms, causing a “rebound” or tail current, which was measured and collected for data analysis. Finally, the voltage was stepped back to the holding potential (−80 mV, 1000 ms). This voltage command protocol was repeated every 20000 msec. This command protocol was performed continuously during the test (vehicle control and test compound).
hERG SyncroPatch assay was conducted at room temperature. The Setup, Prime Chip, Catch and Seal Cells, Amplifier Settings, Voltage and Application Protocols were established with Biomek Software (Nanion).
One addition of 40 μL of the vehicle was applied, followed by 300s for a baseline period. Then the doses of exemplary test compounds were added with 40 μL. The exposure of test compound at each concentration was no less than 300s. […] Five concentrations (0.494 μM, 1.48 μM, 4.44 μM, 13.33 μM and 40.00 μM) were tested for each compound. Minimum 2 replicates per concentration were obtained.
Within each well recording, percent of control values were calculated for each test compound concentration current response based on peak current in presence of reference control (current response/peak current)×100%. The Dose-Response curves were fit to the standard Hill equation as shown below:
Ipost cpd/Ipre cpd=Bottom+(Top−Bottom)/(1+10^((Log IC50−X)*HillSlope))
Where X is the logarithm of concentration, Ipost cpd/Ipre cpd is the normalized peak current amplitude, Top is 1 and Bottom is equal to 0.
Curve-fitting and IC50 calculations were performed by GraphPad Prism 5.0. If the inhibition obtained at the lowest concentration tested was over 50%, or at the highest concentration tested was less than 50%, we reported the IC50 as less than lowest concentration, or higher than highest concentration, respectively.

[4] = CHO cells stably expressing hERG, room temperature, 0.494-40.00 μM, read-out: CHO-hERG Activity Range

T2 sequence (Q12809 whole entry): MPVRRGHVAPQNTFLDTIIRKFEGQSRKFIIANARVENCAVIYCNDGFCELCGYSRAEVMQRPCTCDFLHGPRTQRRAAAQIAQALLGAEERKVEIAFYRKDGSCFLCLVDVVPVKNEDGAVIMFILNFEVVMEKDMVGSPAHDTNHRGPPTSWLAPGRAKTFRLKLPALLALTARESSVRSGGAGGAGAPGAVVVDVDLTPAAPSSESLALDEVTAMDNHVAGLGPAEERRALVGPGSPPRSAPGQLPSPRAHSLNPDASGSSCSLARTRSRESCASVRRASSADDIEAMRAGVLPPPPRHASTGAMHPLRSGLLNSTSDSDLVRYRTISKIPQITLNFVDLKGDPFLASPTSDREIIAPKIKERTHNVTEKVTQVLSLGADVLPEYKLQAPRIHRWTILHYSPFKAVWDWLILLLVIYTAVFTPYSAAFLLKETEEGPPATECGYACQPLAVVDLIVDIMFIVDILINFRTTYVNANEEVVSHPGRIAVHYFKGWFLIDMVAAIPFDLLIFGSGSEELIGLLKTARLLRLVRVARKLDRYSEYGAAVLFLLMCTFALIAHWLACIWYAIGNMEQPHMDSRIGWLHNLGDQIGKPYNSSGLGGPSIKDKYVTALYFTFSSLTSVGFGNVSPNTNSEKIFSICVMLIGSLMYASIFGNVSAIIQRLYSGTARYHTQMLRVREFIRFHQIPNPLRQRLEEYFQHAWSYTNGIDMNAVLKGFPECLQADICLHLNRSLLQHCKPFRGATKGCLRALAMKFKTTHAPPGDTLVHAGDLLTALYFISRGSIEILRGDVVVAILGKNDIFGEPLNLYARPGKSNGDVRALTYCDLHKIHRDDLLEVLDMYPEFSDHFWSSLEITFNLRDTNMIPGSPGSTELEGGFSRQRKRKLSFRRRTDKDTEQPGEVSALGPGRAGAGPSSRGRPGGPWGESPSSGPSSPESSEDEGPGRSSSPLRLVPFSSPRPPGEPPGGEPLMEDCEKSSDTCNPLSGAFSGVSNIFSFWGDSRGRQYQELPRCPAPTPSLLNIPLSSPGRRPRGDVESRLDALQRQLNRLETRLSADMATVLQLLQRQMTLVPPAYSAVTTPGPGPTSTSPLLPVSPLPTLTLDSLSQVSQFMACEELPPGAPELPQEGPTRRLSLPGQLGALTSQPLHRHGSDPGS
T1 sequence (P08546 whole entry): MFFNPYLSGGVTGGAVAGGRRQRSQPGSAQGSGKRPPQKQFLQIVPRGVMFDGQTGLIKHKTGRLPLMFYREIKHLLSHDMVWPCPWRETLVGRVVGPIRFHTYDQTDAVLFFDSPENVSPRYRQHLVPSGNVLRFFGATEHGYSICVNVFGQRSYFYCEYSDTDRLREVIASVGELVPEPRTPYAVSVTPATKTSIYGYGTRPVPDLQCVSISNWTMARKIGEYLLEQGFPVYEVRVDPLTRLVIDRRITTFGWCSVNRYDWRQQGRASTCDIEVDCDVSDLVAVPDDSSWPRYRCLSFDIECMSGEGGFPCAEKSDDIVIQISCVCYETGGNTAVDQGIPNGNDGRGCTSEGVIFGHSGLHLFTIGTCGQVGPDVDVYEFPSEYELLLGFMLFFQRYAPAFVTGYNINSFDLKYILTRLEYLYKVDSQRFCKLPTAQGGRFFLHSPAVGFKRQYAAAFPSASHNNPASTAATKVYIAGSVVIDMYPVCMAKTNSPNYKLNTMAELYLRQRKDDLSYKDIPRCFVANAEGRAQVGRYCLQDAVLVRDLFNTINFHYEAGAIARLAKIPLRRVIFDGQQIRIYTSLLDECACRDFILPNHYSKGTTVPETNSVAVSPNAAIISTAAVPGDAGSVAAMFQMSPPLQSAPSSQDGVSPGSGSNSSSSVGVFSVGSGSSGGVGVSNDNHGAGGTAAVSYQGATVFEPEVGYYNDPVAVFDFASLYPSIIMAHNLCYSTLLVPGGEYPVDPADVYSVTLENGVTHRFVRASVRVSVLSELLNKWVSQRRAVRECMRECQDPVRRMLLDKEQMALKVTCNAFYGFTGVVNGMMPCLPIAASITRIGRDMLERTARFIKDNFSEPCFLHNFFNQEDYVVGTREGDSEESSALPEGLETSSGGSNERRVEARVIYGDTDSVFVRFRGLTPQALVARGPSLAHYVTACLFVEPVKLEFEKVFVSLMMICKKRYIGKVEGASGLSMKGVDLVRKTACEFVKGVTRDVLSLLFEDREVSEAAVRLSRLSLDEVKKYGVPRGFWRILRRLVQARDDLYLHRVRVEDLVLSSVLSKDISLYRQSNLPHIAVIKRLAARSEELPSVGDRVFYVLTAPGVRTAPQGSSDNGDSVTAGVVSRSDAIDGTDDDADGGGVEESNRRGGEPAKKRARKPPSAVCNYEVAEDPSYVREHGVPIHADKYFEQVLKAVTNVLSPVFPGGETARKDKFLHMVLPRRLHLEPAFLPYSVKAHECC

Structure (SMILES)	IC50 [1]	EC50 [2]	CC50 at 4 days [3]	IC50 (hERG potassium channel; [4])	IC50 (hERG potassium channel)
CC1(F)CN(C(=O)Cn2c(=O)c(C(=O)NCc3ccc(Cl)cc3)cc3nc(N4CCCC4=O)cnc32)C1 [Compound 1, N-[(4-chlorophenyl)methyl]-5-[2-(3-fluoro-3-methylazetidin-1-yl)-2-oxoethyl]-6-oxo-2-(2-oxopyrrolidin-1-yl)-5,6-dihydropyrido[2,3-b]pyrazine-7-carboxamide]	< 1 µM	< 1 µM	< 20 µM	> 10 µM	
CC1(F)CN(C(=O)Cn2c(=O)c(C(=O)NCc3ccc(Cl)cc3)cc3nc(N4CCOC4=O)cnc32)C1 [Compound 2, N-[(4-chlorophenyl)methyl]-5-[2-(3-fluoro-3-methylazetidin-1-yl)-2-oxoethyl]-6-oxo-2-(2-oxo-1,3-oxazolidin-3-yl)-5,6-dihydropyrido[2,3-b]pyrazine-7-carboxamide]	< 1 µM	< 1 µM	< 40 µM	< 10 µM	
CN1CCN(c2cnc3c(cc(C(=O)NCc4ccc(Cl)cc4)c(=O)n3CC(=O)N3CC(C)(F)C3)n2)C1=O [Compound 3, N-[(4-chlorophenyl)methyl]-5-[2-(3-fluoro-3-methylazetidin-1-yl)-2-oxoethyl]-2-(3-methyl-2-oxoimidazolidin-1-yl)-6-oxo-5,6-dihydropyrido[2,3-b]pyrazine-7-carboxamide]	< 1 µM	< 1 µM	> 40 µM	> 10 µM	
CC1CCN(c2cnc3c(cc(C(=O)NCc4ccc(Cl)cc4)c(=O)n3CC(=O)N3CC(C)(F)C3)n2)C1=O (stereo not drawn) [Compound 4, N-[(4-chlorophenyl)methyl]-5-[2-(3-fluoro-3-methylazetidin-1-yl)-2-oxoethyl]-2-(3-methyl-2-oxopyrrolidin-1-yl)-6-oxo-5,6-dihydropyrido[2,3-b]pyrazine-7-carboxamide]	< 1 µM	< 1 µM	> 40 µM	< 10 µM	
CC1(F)CN(C(=O)Cn2c(=O)c(C(=O)NCc3ccc(Cl)cc3)cc3nc(N4CCN(CCN)C4=O)cnc32)C1 [Compound 6]	< 1 µM	< 1 µM	> 40 µM	> 10 µM	
CC1(F)CN(C(=O)Cn2c(=O)c(C(=O)NCc3ccc(Cl)cc3)cc3nc(N4CCNC4=O)cnc32)C1 [Compound 12, N-[(4-chlorophenyl)methyl]-5-[2-(3-fluoro-3-methylazetidin-1-yl)-2-oxoethyl]-6-oxo-2-(2-oxoimidazolidin-1-yl)-5,6-dihydropyrido[2,3-b]pyrazine-7-carboxamide]	< 1 µM	< 1 µM	> 40 µM	> 10 µM	
CC1(F)CN(C(=O)Cn2c(=O)c(C(=O)NCc3ccc(Cl)cc3)cc3nc(N4CCN(CC(=O)O)C4=O)cnc32)C1 [Compound 13, [3-(7-{[(4-chlorophenyl)methyl]carbamoyl}-5-[2-(3-fluoro-3-methylazetidin-1-yl)-2-oxoethyl]-6-oxo-5,6-dihydropyrido[2,3-b]pyrazin-2-yl)-2-oxoimidazolidin-1-yl]acetic acid]	< 1 µM	> 1 µM	> 40 µM	> 10 µM	
CN1C(=O)CN(c2cnc3c(cc(C(=O)NCc4ccc(Cl)cc4)c(=O)n3CC(=O)N3CC(C)(F)C3)n2)C1=O [Compound 14, N-[(4-chlorophenyl)methyl]-5-[2-(3-fluoro-3-methylazetidin-1-yl)-2-oxoethyl]-2-(3-methyl-2,4-dioxoimidazolidin-1-yl)-6-oxo-5,6-dihydropyrido[2,3-b]pyrazine-7-carboxamide]	< 1 µM	> 1 µM	> 40 µM	> 10 µM	
CN1C(=O)CN(c2cnc3c(cc(C(=O)NCc4ccc(Cl)cc4)c(=O)n3CC(=O)N3CC4(CC4)C3)n2)C1=O [Compound 15, 5-[2-(5-azaspiro[2.3]hexan-5-yl)-2-oxoethyl]-N-[(4-chlorophenyl)methyl]-2-(3-methyl-2,4-dioxoimidazolidin-1-yl)-6-oxo-5,6-dihydropyrido[2,3-b]pyrazine-7-carboxamide]	< 1 µM	< 1 µM	> 40 µM		< 10 µM
O=C(O)CN1CCN(c2cnc3c(cc(C(=O)NCc4ccc(Cl)cc4)c(=O)n3CC(=O)N3CC4(CC4)C3)n2)C1=O [Compound 20, [3-(5-[2-(5-azaspiro[2.3]hexan-5-yl)-2-oxoethyl]-7-{[(4-chlorophenyl)methyl]carbamoyl}-6-oxo-5,6-dihydropyrido[2,3-b]pyrazin-2-yl)-2-oxoimidazolidin-1-yl]acetic acid]		> 1 µM	> 40 µM	> 10 µM	
